This is an account of results in patent US5972998A, “Triptolide derivatives useful in the treatment of autoimmune diseases” (priority 1998, dated 1999).

For data set [1] the following is noted: administered in conjunction with another immunosuppressive agent; WO 94/26265; cited from earlier work.
Data set [2] has as its system adjuvant-induced arthritis. Kind of data set: Anti-inflammatory activity in the rat model of adjuvant-induced arthritis. The following applies: 12 consecutive days, day 18. The class given is in vivo, rat (male Wistar-Lewis). As for the experimental part: Anti-inflammatory Activity in the Rat Model of Adjuvant-induced Arthritis
(§1) Following generally the procedure of Pearson and Wood, Arth. Rheum., 2, 44 (1959), the anti-inflammatory activity of the following compounds was determined in a rat model of adjuvant-induced arthritis. Male Wistar-Lewisrats (Mollegaard, Breeding Centre Ltd, BIBY, DK 4623 LI, SKENSVED, P.P. Box 28, DK) with a body weight between 160 g and 200 g are used. Freund's adjuvant (0.1 mL, 6 mg Mycobacterium smegmatis suspension per mL in heavy white paraffin oil, Merck/Darmstadt) was injected into the base of the tail. Between day 10 and day 14 of the test, immunopathological processes lead to chronic inflammation, especially in the form of arthritic and periarthritic symptoms in all parts of the body. The animals received standardized food Altromin-R (Altrogge, Lage) and had free access to water. The compounds were administered i.p. (suspension in a carboxymethyl cellulose solution in an injection volume of 0.5 mL/100 g body weight) on 12 consecutive days, starting with the day of the adjuvant injection. On day 1 and day 18 of the study, the volume to of both hind paws and the body weight were recorded, and in addition on day 18 the arthritis index. Cyclosporin A and Prednisolone were used as standard compounds. In addition, table IV presents the percent change in body weight (weight gain) between day 1 and day 21 of the above test.

Data set [3] is classed as in vivo, rat (male Wistar-Lewis). The following applies: weight gain between day 1 and day 21. As for the experimental part: as §1
Another data set concerns IL-2. Kind of data set: Interleukin-2 assay (IL-2 production, ELISA, PHA/TPA-stimulated cells). The class given is cell-based. The following applies: Jurkat E6-1 cells or human blood lymphocytes, PHA 10 μg/mL + TPA 10^-8 M, 16-24 hours. As for the experimental part: (§2) Jurkat E6-1 cell line (ATCC), a human leukemic T cell line or lymphocytes prepared from fresh human blood, are grown in complete culture medium consisting of RPMI-1640 (Mediatech) supplemented with 10% v/v fetal bovine serum (HyClone, Logen, Vt.), penicillin (100 units/mL), streptomycin ([…]), and 2 mM L-glutamine (GIBCO, Grand Island, N.Y.). The cells are grown to a concentration of between 1.2 to 1.8×10^6 cells/mL before use. The cells are then centrifuged at low speed and resuspended to a concentration of 1.25×10^6 cells/mL in fresh medium.
(§3) The compounds to be tested are dissolved in DMSO, and water is added to make a 50% DMSO/water solution. The compounds are then diluted in sterile water such that the DMSO concentrations are less then 0.05%. The cells at a concentration of 1.25×10^6 cells/mL are stimulated with phytohemagglutinin 10 μg/mL (PHA) and 10^-8 M phorbol ester (12-O-tetradecanoylphorbol 13-acetate: TPA), (Sigma, St. Louis, Mo.). The compounds are then added and the cells are plated in flat-bottom tissue culture plates (Falcon, Lincoln Park, N.J.), with 250,000 cells/well. Plates are then incubated at 37° C. under an atmosphere of 5% CO2.
(§4) After incubation (16-24 hours), the cells are assayed for IL-2 production and cell viability (MTT). IL-2 production is assayed utilizing a solid phase ELISA immunoassay, sold in kit form by R&D Systems, Inc., Minneapolis, Minn.

The test system of data set [4] is Jurkat E6-1 cell line (ATCC), a human leukemic T cell line or lymphocytes prepared from fresh human blood. Kind of data set: Cell viability (mitochondrial enzyme assay, MTT). The class given is cell-based. The settings on record: after 16-24 hours incubation. As for the experimental part: as §2, §3, §4
Cell viability is measured by the use of a mitochondrial enzyme assay. After removal of the supernatant for the IL-2 assay, Cell Titer 96 (a commercial solution of MTT available from Promega, Madison, Wis.) is added to the plates and incubated for 4 hours at 37° C. A solubilization solution is then added and incubated overnight. The plates are then read on an ELISA plate reader at a wavelength of 570 nm. Table II presents the results for the lnterleukin-2 assay, the cell viability assay and the ratio of cell viability/IL-2 inhibition.

The next data set concerns lymphocyte. The settings on record: Yang, et al., 1992 and 1994; cited from earlier work.
The test system of a further data set is skin allograft rejection. The settings on record: Yang, et al., 1992 and 1994; cited from earlier work.

Converted amounts (≈) assume the structure as drawn. Where two headings read alike, the source gives them in different places. Where only a bound is given, the exact number is not on record here.

As to `C[C@@H](CO)[C@]12O[C@H]1[C@@H]1O[C@]13[C@]1(O[C@H]1C[C@H]1C4=C(CC[C@@]13C)C(=O)OC4)[C@@H]2O` [16-hydroxytriptolide, 16-Hydroxytriptolide], in data set [1], the “immunosuppressive activity relative to the sum of the effects of either agent alone” value is reported as “increase in immunosuppressive activity relative to the sum of the effects”.
As usually defined, the % Inhibition is the drop in the measured response relative to a control, in per cent. With Cyclosporin A [reference compound], the “% Inhibition” value in data set [2] (10 mg/kg/day i.p.) is 100%. The “% Change in Body Weight” value in data set [3] (10 mg/kg/day i.p.) was determined as 27.2%.
With `CC(C)[C@]1(O)C=C[C@@]2(O)[C@@]3(C)CCC4=C(COC4=O)C3CC[C@@]2(O)[C@@H]1O` (stereo partly drawn) [Example 2, [5aR-(5aα,6α,7β,9aα,9bα)]-3b,4,5,5a,6,7,9a,9b,10,11-decahydro-5a,6,7,9a-tetrahydroxy-9b-methyl-7-(1-methylethyl)-phenanthro[1,2-c]furan-1(3H)-one], in the data set with IL-2, the “IC50 /IL-2” value stood at 14 ng/mL. For the same molecule, in data set [4], the “IC50 /MTT” value came to 90 ng/mL (≈ 0.247 µM). Also, the figures for the “% Inhibition” value in data set [2] (2 mg/kg/day i.p.) and in data set [2] (4 mg/kg/day i.p.) were 83% and 72%, respectively. The “% Change in Body Weight” value in data set [3] (2 mg/kg/day i.p.) is given as 18.3%; in data set [3] (4 mg/kg/day i.p.) it was 24.1%.
With “[5R-(5α,5aβ,6β,7α,9aβ,9bβ)]-3b,4,5,5a,6,7,9a,10,11-decahydro-5a,6,9a-trihydroxy-9b-methyl-7-(1-methylethyl)-5,7-epoxyphenanthro[1,2-c]furan-1(3H)-one [Example 3]”, the “IC50 /IL-2” value in the data set with IL-2 stood at 500 ng/mL. Besides, the “IC50 /MTT” value in data set [4] is listed as > 1,000 ng/mL.
In the same order, the values of “[5aS-(5aα,5bα,8β,9α,9aR*,10aβ)]-4,5a,5b,8,9,10a,11,11a-octahydro-5b,8,9-trihydroxy-5a-methyl-8-(1-methylethyl)-1H-oxireno[8a,9]phenanthro[1,2-c]furan-3(5)-one [Example 1]” are 1,000 ng/mL and > 1,000 ng/mL.
As for `CC(C)[C@]12O[C@H]1[C@@H]1O[C@]13[C@]1(O[C@H]1C[C@H]1C4=C(CC[C@@]13C)C(=O)OC4)[C@@H]2O` [Triptolide, triptolide], the “IC50 /MTT” value in data set [4] came to 5 ng/mL (≈ 0.0139 µM). For the same molecule, the suppress lymphocyte proliferation entry in the data set on lymphocyte was “suppress lymphocyte proliferation”. Also, in the data set with skin allograft rejection, the “suppress skin allograft rejection” value was “suppress lymphocyte proliferation and skin allograft rejection”.
